Experimental data as given in ChEMBL document CHEMBL5653615 (J Biol Chem, 2013).
Each block holds one compound with its values, some of them ahead of it.

What was measured:
[1] = target: ALK tyrosine kinase receptor (Homo sapiens) (UniProt Q9UM73); test: Inhibition of human ALK at 18.6 nM by HotSpot assay relative to control
[2] = target: T1, Ephrin type-B receptor 1 (Homo sapiens) (UniProt P54762); test: Inhibition of human EPHB1 at 18.6 nM by HotSpot assay relative to control
T1 sequence (whole entry): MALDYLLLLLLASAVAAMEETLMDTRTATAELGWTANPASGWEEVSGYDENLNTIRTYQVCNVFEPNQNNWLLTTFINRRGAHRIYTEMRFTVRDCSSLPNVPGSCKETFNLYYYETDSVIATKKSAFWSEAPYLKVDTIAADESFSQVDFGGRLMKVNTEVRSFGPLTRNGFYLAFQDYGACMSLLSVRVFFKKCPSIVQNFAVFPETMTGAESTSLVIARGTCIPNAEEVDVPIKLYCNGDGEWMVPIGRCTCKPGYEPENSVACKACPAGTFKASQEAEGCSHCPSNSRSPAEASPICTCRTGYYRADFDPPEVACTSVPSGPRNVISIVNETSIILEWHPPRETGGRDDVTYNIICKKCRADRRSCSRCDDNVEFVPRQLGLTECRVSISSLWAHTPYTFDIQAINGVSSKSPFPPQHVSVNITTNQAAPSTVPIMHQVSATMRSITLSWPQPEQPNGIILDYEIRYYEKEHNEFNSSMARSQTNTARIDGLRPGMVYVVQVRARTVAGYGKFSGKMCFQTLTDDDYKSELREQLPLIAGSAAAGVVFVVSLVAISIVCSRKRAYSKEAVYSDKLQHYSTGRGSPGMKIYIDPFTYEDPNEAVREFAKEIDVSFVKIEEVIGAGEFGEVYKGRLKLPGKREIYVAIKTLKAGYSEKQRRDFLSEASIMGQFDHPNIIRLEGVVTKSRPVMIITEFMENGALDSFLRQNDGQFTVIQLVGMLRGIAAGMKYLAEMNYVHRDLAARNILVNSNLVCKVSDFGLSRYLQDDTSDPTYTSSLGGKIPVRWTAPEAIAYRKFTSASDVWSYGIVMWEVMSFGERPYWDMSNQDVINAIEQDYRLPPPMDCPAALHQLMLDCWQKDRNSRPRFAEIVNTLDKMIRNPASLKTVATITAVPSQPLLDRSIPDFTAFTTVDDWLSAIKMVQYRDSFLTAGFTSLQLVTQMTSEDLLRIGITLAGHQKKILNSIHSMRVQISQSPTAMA

[3] = target: Mitogen-activated protein kinase kinase kinase kinase 4 (Homo sapiens) (UniProt O95819); test: Inhibition of human HGK at 18.6 nM by HotSpot assay relative to control
[4] = target: T2, Serine/threonine-protein kinase NLK (Homo sapiens) (UniProt Q9UBE8); test: Inhibition of human NLK at 18.6 nM by HotSpot assay relative to control
T2 sequence (whole entry): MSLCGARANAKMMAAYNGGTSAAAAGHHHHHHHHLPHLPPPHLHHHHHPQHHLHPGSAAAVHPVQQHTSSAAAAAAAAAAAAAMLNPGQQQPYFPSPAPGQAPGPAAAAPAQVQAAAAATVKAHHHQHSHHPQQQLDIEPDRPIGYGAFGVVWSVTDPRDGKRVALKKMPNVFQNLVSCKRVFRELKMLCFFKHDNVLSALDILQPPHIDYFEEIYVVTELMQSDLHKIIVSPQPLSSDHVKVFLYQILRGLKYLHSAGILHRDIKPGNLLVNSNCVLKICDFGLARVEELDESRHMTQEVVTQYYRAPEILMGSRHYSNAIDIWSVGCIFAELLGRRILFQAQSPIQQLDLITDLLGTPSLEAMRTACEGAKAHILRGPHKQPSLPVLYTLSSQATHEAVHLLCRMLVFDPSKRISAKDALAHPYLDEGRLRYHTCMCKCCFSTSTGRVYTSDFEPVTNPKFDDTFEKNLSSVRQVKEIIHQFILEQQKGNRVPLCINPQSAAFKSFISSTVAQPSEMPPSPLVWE

[5] = target: T3, Protein kinase C epsilon type (Homo sapiens) (UniProt Q02156); test: Inhibition of human PKCepsilon at 18.6 nM by HotSpot assay relative to control
T3 sequence (whole entry): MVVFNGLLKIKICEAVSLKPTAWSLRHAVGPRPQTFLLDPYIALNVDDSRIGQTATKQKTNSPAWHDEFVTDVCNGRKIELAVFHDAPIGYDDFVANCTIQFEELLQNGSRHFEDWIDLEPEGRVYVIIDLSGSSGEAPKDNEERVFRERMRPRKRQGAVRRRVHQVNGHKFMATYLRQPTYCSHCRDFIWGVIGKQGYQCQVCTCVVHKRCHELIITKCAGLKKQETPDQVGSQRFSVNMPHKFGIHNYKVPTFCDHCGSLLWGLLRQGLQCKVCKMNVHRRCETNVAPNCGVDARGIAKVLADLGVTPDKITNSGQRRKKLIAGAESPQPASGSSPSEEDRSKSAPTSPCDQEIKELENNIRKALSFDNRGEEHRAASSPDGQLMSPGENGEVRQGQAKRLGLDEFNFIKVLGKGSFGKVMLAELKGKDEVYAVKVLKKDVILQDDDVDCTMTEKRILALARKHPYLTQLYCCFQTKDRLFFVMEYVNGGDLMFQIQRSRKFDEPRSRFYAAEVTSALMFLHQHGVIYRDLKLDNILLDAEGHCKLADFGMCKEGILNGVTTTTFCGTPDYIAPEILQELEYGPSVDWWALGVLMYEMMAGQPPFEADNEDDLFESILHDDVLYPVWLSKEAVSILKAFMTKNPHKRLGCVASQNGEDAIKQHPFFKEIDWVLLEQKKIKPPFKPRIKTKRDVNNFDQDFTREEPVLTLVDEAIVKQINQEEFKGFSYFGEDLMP

[6] = target: Platelet-derived growth factor receptor beta (Homo sapiens) (UniProt P09619); test: Inhibition of human PDGFRb at 500 nM by HotSpot assay relative to control
[7] = target: RAC-beta serine/threonine-protein kinase (Homo sapiens) (UniProt P31751); test: Inhibition of human AKT2 at 1.82 nM by HotSpot assay relative to control
[8] = target: Mitogen-activated protein kinase kinase kinase kinase 5 (Homo sapiens) (UniProt Q9Y4K4); test: Inhibition of human KHS at 1.82 nM by HotSpot assay relative to control
[9] = target: MAP kinase-interacting serine/threonine-protein kinase 1 (Homo sapiens) (UniProt Q9BUB5); test: Inhibition of human MNK1 at 1.82 nM by HotSpot assay relative to control
[10] = target: Serine/threonine-protein kinase PAK 1 (Homo sapiens) (UniProt Q13153); test: Inhibition of human PAK1 at 1.82 nM by HotSpot assay relative to control
[11] = target: Ribosomal protein S6 kinase alpha-3 (Homo sapiens) (UniProt P51812); test: Inhibition of human RSK2 at 1.82 nM by HotSpot assay relative to control
Chain of Ribosomal protein S6 kinase alpha-3 (Homo sapiens) (P51812 whole entry): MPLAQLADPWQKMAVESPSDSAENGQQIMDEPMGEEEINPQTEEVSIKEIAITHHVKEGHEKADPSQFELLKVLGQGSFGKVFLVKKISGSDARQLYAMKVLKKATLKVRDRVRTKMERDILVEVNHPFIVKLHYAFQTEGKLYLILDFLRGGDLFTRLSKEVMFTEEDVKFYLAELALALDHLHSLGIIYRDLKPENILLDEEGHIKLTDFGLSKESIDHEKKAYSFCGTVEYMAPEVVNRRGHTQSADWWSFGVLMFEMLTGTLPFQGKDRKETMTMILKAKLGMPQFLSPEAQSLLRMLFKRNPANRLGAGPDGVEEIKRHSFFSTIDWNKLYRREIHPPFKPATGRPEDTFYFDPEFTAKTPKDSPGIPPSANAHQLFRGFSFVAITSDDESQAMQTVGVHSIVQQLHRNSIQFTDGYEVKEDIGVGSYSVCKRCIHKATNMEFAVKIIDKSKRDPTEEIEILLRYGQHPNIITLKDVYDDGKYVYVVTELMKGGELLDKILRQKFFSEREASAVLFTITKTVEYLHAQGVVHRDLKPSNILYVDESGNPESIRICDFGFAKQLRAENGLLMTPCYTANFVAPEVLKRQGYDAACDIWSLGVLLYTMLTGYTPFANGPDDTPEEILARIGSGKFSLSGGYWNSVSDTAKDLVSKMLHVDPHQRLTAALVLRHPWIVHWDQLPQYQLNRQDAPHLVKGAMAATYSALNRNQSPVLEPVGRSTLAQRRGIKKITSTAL

Chain of Mitogen-activated protein kinase kinase kinase kinase 4 (Homo sapiens) (O95819 2-1239 limits assumed): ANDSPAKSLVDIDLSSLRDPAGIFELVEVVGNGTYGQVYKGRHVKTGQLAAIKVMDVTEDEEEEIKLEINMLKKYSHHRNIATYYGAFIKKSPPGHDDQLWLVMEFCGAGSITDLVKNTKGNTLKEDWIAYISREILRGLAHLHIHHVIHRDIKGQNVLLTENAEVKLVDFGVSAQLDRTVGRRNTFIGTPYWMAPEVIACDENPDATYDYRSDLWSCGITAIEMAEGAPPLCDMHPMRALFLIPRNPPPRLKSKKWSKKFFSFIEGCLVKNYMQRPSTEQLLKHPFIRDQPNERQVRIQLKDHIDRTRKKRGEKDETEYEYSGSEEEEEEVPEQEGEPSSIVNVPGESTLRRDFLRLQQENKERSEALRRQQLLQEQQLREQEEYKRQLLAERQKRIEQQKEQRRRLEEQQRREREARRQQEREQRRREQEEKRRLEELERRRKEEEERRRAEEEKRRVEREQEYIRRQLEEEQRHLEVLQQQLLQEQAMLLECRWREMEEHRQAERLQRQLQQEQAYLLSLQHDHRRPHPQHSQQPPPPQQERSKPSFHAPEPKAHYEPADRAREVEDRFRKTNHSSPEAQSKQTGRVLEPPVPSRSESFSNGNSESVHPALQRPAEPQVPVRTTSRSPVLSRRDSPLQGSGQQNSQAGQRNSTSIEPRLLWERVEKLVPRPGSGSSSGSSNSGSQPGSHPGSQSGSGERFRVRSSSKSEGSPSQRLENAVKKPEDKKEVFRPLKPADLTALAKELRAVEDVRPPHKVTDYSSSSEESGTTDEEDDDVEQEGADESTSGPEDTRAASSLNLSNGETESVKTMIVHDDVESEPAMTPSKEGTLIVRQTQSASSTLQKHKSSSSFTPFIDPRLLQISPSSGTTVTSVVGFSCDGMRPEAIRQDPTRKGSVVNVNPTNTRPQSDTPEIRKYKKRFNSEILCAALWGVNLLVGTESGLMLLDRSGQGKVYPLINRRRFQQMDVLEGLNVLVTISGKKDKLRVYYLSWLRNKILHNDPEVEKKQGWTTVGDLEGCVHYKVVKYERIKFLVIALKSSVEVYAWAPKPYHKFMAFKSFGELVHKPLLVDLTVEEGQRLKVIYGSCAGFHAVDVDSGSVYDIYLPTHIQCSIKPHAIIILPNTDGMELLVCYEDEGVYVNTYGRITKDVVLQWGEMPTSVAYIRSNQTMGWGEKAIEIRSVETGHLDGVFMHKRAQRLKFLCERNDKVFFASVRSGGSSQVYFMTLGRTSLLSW
Chain of ALK tyrosine kinase receptor (Homo sapiens) (Q9UM73 19-1620 limits assumed): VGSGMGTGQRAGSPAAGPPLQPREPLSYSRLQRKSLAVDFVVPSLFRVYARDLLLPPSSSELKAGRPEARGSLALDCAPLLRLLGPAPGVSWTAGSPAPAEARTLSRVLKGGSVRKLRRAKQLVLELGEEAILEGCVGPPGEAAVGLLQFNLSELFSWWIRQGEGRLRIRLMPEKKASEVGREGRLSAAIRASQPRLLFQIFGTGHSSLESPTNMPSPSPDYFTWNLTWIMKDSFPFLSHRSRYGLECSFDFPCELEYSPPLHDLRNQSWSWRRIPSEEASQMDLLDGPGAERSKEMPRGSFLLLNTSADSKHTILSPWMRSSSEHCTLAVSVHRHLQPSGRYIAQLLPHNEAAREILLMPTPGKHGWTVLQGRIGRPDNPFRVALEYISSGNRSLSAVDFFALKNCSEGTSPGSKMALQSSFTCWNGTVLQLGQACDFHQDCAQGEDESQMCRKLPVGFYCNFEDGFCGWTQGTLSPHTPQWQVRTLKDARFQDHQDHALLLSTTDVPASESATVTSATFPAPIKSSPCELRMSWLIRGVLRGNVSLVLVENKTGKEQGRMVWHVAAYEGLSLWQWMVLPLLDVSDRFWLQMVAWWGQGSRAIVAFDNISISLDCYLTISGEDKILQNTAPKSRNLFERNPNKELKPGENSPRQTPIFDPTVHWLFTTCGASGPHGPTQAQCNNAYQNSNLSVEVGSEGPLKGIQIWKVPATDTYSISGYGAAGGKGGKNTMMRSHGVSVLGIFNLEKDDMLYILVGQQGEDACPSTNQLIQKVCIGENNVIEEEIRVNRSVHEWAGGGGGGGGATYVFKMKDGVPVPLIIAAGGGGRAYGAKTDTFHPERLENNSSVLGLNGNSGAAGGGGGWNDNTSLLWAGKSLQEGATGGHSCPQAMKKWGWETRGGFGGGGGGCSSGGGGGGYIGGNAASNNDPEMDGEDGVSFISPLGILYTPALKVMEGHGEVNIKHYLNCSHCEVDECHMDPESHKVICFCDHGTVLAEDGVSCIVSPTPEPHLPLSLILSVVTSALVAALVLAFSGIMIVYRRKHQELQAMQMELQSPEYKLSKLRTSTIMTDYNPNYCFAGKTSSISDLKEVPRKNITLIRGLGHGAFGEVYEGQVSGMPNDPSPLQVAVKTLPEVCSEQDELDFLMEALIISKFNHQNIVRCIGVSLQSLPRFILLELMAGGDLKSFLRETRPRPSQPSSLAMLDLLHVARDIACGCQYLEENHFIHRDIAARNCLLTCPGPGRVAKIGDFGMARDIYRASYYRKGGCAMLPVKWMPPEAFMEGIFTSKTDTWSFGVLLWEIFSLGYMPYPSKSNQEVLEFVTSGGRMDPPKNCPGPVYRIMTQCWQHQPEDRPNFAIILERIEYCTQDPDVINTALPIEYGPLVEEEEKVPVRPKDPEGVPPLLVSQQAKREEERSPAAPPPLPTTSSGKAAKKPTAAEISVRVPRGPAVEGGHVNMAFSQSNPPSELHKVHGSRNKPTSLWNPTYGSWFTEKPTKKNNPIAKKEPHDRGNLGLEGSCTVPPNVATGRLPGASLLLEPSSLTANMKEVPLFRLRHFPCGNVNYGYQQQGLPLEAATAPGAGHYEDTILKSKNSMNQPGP
Chain of Serine/threonine-protein kinase PAK 1 (Homo sapiens) (Q13153 whole entry): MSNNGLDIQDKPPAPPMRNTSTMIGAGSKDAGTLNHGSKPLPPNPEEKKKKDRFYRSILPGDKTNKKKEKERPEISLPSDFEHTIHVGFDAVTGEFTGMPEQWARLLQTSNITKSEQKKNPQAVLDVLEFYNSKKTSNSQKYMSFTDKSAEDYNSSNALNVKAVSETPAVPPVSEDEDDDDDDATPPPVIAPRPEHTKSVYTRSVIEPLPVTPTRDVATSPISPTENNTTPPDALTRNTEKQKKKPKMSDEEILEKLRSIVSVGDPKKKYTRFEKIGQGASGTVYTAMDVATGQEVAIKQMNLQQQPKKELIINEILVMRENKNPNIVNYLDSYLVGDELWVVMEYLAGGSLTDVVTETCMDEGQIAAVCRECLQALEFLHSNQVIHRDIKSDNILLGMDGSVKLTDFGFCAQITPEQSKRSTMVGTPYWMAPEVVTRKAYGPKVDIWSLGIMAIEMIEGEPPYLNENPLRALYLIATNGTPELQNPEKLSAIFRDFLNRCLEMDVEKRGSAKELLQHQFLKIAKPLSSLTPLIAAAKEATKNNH
Chain of RAC-beta serine/threonine-protein kinase (Homo sapiens) (P31751 whole entry): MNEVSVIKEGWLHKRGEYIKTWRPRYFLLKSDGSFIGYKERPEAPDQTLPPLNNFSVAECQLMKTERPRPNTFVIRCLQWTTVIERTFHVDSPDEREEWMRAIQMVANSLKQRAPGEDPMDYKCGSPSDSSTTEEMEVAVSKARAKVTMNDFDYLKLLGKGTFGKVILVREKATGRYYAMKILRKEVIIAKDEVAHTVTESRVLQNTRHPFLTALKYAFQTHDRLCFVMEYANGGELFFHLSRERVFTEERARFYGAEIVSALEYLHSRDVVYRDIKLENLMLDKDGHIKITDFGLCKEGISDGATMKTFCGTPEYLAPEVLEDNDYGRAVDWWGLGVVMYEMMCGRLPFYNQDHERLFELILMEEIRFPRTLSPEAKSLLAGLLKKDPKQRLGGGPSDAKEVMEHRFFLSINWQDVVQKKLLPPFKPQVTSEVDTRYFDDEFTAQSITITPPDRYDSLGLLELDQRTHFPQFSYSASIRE
Chain of MAP kinase-interacting serine/threonine-protein kinase 1 (Homo sapiens) (Q9BUB5 whole entry, looked up): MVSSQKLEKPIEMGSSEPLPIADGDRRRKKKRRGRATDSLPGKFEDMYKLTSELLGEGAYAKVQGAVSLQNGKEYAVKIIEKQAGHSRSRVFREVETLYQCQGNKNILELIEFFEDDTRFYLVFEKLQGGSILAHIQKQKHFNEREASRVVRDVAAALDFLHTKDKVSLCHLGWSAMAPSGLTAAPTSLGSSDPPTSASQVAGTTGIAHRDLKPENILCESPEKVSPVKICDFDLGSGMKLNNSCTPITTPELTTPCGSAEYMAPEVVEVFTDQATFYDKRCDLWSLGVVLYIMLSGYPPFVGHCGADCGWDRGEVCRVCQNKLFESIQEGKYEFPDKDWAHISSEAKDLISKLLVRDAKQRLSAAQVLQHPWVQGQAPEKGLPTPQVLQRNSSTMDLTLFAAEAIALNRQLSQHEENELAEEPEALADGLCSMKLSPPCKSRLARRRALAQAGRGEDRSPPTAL

- inhibition [1]: -6.1%
- inhibition [2]: -4.68%
- inhibition [3]: -9.59%
- inhibition [4]: -1.35%
- inhibition [5]: -9.61%
SMILES: C[C@]1(O)C[C@@H](c2nc(-c3ccc4ccc(-c5ccccc5)nc4c3)c3c(N)nccn32)C1

SMILES: Oc1n[nH]c2nnc(-c3c(-c4ccccc4)nn4ccccc34)cc12
- inhibition [6]: -0.46%

- inhibition [7]: -0.4%
- inhibition [8]: -3.57%
- inhibition [9]: 5.01%
- inhibition [10]: 1.83%
- inhibition [11]: 2.83%
SMILES: C[C@@]1(C(=O)Nc2ccc(F)nc2)CCCN1c1nc(Nc2cc(C3CC3)n[nH]2)c2cccn2n1
